From ChEMBL document CHEMBL5365526 (J Med Chem, 2023)
The source made the active and inactive calls. No cut-off for these calls is given here.

Tests used:
[1] = target: T1, von Hippel-Lindau disease tumor suppressor/Mitogen-activated protein kinase 7 (Homo sapiens, UniProt Q13164+P40337); experiment: PROTAC activity at VHL/ERK5 in human A-375 cells assessed as induction of ERK5 degradation at 200 nM incubated for 2 to 4 hrs by western blot analysis; format: cell-based; conditions: time 2-4 hrs
Target sequence in this assay (P40337 whole entry partner): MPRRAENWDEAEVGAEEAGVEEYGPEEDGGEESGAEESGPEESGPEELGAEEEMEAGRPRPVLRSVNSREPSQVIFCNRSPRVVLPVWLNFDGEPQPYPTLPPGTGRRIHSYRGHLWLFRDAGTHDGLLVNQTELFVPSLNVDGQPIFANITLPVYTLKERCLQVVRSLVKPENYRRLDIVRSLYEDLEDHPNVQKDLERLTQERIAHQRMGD
Target sequence in this assay (Q13164 2-816 limits assumed): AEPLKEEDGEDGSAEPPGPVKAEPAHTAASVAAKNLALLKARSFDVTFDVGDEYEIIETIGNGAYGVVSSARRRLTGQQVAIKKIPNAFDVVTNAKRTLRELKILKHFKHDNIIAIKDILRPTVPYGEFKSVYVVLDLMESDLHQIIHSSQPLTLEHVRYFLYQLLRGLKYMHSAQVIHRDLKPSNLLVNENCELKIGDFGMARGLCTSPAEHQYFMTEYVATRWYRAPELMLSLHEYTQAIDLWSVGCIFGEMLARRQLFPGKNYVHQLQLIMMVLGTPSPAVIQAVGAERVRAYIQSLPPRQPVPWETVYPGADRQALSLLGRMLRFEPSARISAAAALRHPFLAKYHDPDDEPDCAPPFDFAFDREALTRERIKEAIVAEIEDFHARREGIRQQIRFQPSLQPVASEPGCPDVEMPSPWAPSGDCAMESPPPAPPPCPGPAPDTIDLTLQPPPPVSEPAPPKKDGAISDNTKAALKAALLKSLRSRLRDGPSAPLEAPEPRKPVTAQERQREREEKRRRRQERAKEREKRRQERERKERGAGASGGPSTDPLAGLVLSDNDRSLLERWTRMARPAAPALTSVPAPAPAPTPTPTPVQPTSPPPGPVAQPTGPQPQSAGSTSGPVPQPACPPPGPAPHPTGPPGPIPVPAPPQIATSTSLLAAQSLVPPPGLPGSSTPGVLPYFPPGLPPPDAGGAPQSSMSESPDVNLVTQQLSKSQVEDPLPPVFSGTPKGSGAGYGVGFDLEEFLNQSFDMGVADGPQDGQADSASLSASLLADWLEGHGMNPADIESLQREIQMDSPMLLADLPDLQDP

[2] = test system: MDA-MB-231; experiment: Antiproliferative activity against human MDA-MB-231 cells assessed as reduction in cell viability incubated for 72 hrs by CCK8 assay; format: functional, cell-based
[3] = test system: A-375; experiment: Inhibition of cell colony formation in human A-375 cells at 0.5 uM cultured in 8% FBS and measured after 7 days in presence of LPS by crystal violet staining based analysis; format: functional; conditions: time 7.0 day
[4] = target: von Hippel-Lindau disease tumor suppressor/Leucine-rich repeat serine/threonine-protein kinase 2 (Homo sapiens) (UniProt Q5S007+P40337); experiment: PROTAC activity at VHL/LRRK2 in human A-375 cells assessed as induction of LRRK2 degradation at 6 to 500 nM incubated for 12 hrs by western bot analysis; format: cell-based; conditions: dose 6-500 nM
[5] = test system: A-375; experiment: Effect on cell migration in human A-375 cells at 0.01 to 1 uM incubated for 24 hrs by crystal violet staining based transwell assay; format: functional; conditions: dose 0.01-1 µM
[6] = target: T1, von Hippel-Lindau disease tumor suppressor/Mitogen-activated protein kinase 7; experiment: PROTAC activity at VHL/ERK5 in human THP-1 cells assessed as decrease in IL-10 level at 0.5 uM incubated for 0.5 hrs followed by incubation with LPS for 24 hrs; format: cell-based; conditions: time 24.5 hrs
Target sequence in this assay (P40337 whole entry partner): as the sequence (P40337 whole entry partner) above
Target sequence in this assay (Q13164 2-816 limits assumed): as the sequence (Q13164 2-816 limits assumed) above

[7] = test system: A-375; experiment: Effect on GDC0994-induced antitumor activity against human A-375 cells assessed as reduction in cell viability at 200 nM incubated for 72 hrs by CCK8 assay; format: functional, cell-based
[8] = target: T1, von Hippel-Lindau disease tumor suppressor/Mitogen-activated protein kinase 7; experiment: PROTAC activity at VHL/ERK5 in human A-375 cells assessed as induction of ERK5 degradation at 200 nM incubated for 12 hrs by western blot analysis; format: cell-based
Target sequence in this assay (P40337 whole entry partner): as the sequence (P40337 whole entry partner) above
Target sequence in this assay (Q13164 2-816 limits assumed): as the sequence (Q13164 2-816 limits assumed) above

[9] = Inhibition of M2 macrophage development in PMA-differentiated human THP-1 cells assessed as CD206 surface expression at 0.5 uM incubated for 48 hrs by flow cytometry (reference value: 53.4%); format: functional; set-up: scale not given: the % may be the effect or the level left
[10] = test system: HCT-116; experiment: Inhibition of M2 macrophage development in human HCT-116 cells assessed as inhibition of cell colony formation at 0.5 uM cultured in specific M2 medium and measured after 7 days in presence of LPS by crystal violet staining based analysis; format: functional; conditions: time 7.0 day
[11] = target: T1, von Hippel-Lindau disease tumor suppressor/Mitogen-activated protein kinase 7; experiment: PROTAC activity at VHL/ERK5 in human HepG2 cells assessed as induction of ERK5 degradation incubated for 12 hrs by western blot analysis; format: cell-based
Target sequence in this assay (Q13164 whole entry): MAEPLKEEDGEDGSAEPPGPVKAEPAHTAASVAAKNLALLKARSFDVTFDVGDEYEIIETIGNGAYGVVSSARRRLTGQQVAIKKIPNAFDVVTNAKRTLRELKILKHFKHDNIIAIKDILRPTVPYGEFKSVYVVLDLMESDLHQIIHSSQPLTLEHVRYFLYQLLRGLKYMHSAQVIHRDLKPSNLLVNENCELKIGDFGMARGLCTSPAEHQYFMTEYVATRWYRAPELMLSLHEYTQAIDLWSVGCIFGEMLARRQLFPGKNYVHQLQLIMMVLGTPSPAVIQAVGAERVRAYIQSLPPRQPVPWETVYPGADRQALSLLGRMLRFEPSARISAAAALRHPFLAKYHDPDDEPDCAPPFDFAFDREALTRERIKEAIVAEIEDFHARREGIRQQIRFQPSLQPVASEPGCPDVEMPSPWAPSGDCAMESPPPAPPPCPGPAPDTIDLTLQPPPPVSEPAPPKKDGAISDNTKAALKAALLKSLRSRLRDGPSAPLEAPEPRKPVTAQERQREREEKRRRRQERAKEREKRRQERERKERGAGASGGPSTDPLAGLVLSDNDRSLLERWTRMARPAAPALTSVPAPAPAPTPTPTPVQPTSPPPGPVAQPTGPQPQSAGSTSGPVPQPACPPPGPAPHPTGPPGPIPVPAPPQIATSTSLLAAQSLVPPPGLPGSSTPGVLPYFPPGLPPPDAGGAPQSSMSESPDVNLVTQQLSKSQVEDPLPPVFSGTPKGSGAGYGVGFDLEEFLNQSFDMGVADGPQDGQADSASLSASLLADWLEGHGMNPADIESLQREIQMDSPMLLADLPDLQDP
Target sequence in this assay (P40337 whole entry): as the sequence (P40337 whole entry partner) above

[12] = test system: HCT-116; experiment: Inhibition of cell colony formation in human HCT-116 cells at 0.5 uM cultured in 8% FBS and measured after 7 days in presence of LPS by crystal violet staining based analysis; format: functional; conditions: time 7.0 day
[13] = test system: PC-3; experiment: Antiproliferative activity against human PC-3 cells assessed as reduction in cell viability incubated for 72 hrs by CCK8 assay; format: functional, cell-based
[14] = test system: A-375; experiment: Effect on mirdametinib-induced antitumor activity against human A-375 cells assessed as reduction in cell viability at 200 nM incubated for 72 hrs by CCK8 assay; format: functional, cell-based
[15] = test system: A-375; experiment: Effect on dabrafenib-induced antitumor activity against human A-375 cells assessed as reduction in cell viability at 200 nM incubated for 72 hrs by CCK8 assay; format: functional, cell-based
[16] = test system: HCT-116; experiment: Effect on mirdametinib-induced antitumor activity against human HCT-116 cells assessed as reduction in cell viability at 200 nM incubated for 72 hrs by CCK8 assay; format: functional, cell-based
[17] = target: T1, von Hippel-Lindau disease tumor suppressor/Mitogen-activated protein kinase 7; experiment: PROTAC activity at VHL/ERK5 in human A-375 cells assessed as induction of ERK5 degradation incubated for 12 hrs by western blot analysis; format: cell-based
Target sequence in this assay (Q13164 whole entry): as the sequence (Q13164 whole entry) above
Target sequence in this assay (P40337 whole entry): as the sequence (P40337 whole entry partner) above

[18] = test system: A-375; experiment: Effect on trametinib-induced antitumor activity against human A-375 cells assessed as reduction in cell viability at 200 nM incubated for 72 hrs by CCK8 assay; format: functional, cell-based
[19] = test system: A-375; experiment: Inhibition of M2 macrophage development in human A-375 cells assessed as inhibition of cell colony formation at 0.5 uM cultured in macrophage M0 medium and measured after 7 days in presence of LPS by crystal violet staining based analysis; format: functional; conditions: time 7.0 day
[20] = target: T1, von Hippel-Lindau disease tumor suppressor/Mitogen-activated protein kinase 7; experiment: PROTAC activity at VHL/ERK5 in human PC-3 cells assessed as induction of ERK5 degradation incubated for 12 hrs by western blot analysis; format: cell-based
Target sequence in this assay (Q13164 whole entry): as the sequence (Q13164 whole entry) above
Target sequence in this assay (P40337 whole entry): as the sequence (P40337 whole entry partner) above

[21] = test system: HCT-116; experiment: Effect on cell migration in human HCT-116 cells at 0.01 to 1 uM incubated for 24 hrs by crystal violet staining based transwell assay; format: functional; conditions: dose 0.01-1 µM
[22] = target: T1, von Hippel-Lindau disease tumor suppressor/Mitogen-activated protein kinase 7; experiment: PROTAC activity at VHL/ERK5 in human A-375 cells assessed as induction of ERK5 degradation incubated for 24 hrs by western blot analysis; format: cell-based
Target sequence in this assay (Q13164 whole entry): as the sequence (Q13164 whole entry) above
Target sequence in this assay (P40337 whole entry): as the sequence (P40337 whole entry partner) above

[23] = target: T1, von Hippel-Lindau disease tumor suppressor/Mitogen-activated protein kinase 7; experiment: PROTAC activity at VHL/ERK5 in human A-375 cells assessed as induction of ERK5 degradation at 1.1 microM incubated for 12 hrs by western blot analysis; format: cell-based
Target sequence in this assay (P40337 whole entry partner): as above
Target sequence in this assay (Q13164 2-816 limits assumed): as the sequence (Q13164 2-816 limits assumed) above

[24] = test system: HCT-116; experiment: Antiproliferative activity against human HCT-116 cells assessed as reduction in cell viability incubated for 72 hrs by CCK8 assay; format: functional, cell-based
[25] = target: von Hippel-Lindau disease tumor suppressor/Bromodomain-containing protein 4 (Homo sapiens) (UniProt O60885+P40337); experiment: PROTAC activity at VHL/BRD4 in human A-375 cells assessed as induction of BRD4 degradation at 6 to 500 nM incubated for 12 hrs by western bot analysis; format: cell-based; conditions: dose 6-500 nM
[26] = test system: HCT-116; experiment: Effect on vemurafenib-induced antitumor activity against human HCT-116 cells assessed as reduction in cell viability at 200 nM incubated for 72 hrs by CCK8 assay; format: functional, cell-based
[27] = test system: HCT-116; experiment: Effect on trametinib-induced antitumor activity against human HCT-116 cells assessed as reduction in cell viability at 200 nM incubated for 72 hrs by CCK8 assay; format: functional, cell-based
[28] = target: T1, von Hippel-Lindau disease tumor suppressor/Mitogen-activated protein kinase 7; experiment: PROTAC activity at VHL/ERK5 in human MDA-MB-231 cells assessed as maximal induction of ERK5 degradation incubated for 12 hrs by western blot analysis relative to control; format: cell-based
Target sequence in this assay (P40337 whole entry partner): as the sequence (P40337 whole entry partner) above
Target sequence in this assay (Q13164 2-816 limits assumed): as the sequence (Q13164 2-816 limits assumed) above

[29] = target: T1, von Hippel-Lindau disease tumor suppressor/Mitogen-activated protein kinase 7; experiment: PROTAC activity at VHL/ERK5 in human A-375 cells assessed as induction of ERK5 degradation at 200 nM pretreated for 1 hr with proteasome inhibitor, MG132 followed by incubation with compound for 12 hrs by western blot analysis; format: cell-based
Target sequence in this assay (P40337 whole entry partner): as the sequence (P40337 whole entry partner) above
Target sequence in this assay (Q13164 2-816 limits assumed): as the sequence (Q13164 2-816 limits assumed) above

[30] = target: T1, von Hippel-Lindau disease tumor suppressor/Mitogen-activated protein kinase 7; experiment: PROTAC activity at VHL/ERK5 in human THP-1 cells assessed as induction of ERK5 degradation at 0.5 uM incubated for 0.5 hrs followed by incubation with LPS for 24 hrs by western blot analysis; format: cell-based; conditions: time 24.5 hrs
[31] = test system: A-375; experiment: Inhibition of M2 macrophage development in human A-375 cells assessed as inhibition of cell colony formation at 0.5 uM cultured in specific M2 medium and measured after 7 days in presence of LPS by crystal violet staining based analysis; format: functional; conditions: time 7.0 day
[32] = target: T1, von Hippel-Lindau disease tumor suppressor/Mitogen-activated protein kinase 7; experiment: PROTAC activity at VHL/ERK5 in human A-375 cells assessed as induction of ERK5 degradation at 200 nM pretreated for 1 hr with E3 ligase inhibitor, MLN4924 followed by incubation with compound for 12 hrs by western blot analysis; format: cell-based
[33] = test system: HepG2; experiment: Antiproliferative activity against human HepG2 cells assessed as reduction in cell viability incubated for 72 hrs by CCK8 assay; format: functional, cell-based

Sequence of von Hippel-Lindau disease tumor suppressor/Bromodomain-containing protein 4 (Homo sapiens) (P40337 whole entry, looked up, other chains not shown): as the sequence (P40337 whole entry partner) above

With `COc1cc(N2CCN(CCCCCCC(=O)N[C@H](C(=O)N3C[C@H](O)C[C@H]3C(=O)N[C@@H](C)c3ccc(-c4scnc4C)cc3)C(C)(C)C)CC2)ccc1Nc1ncc2c(n1)N(C)c1ccccc1C(=O)N2C` the Activity [1] was “Active”, the Activity [2] was “inactive” and the inhibition [3] was “inactive”. For the same compound, the Activity [4] was “inactive”, the Activity [5] was “inactive” and the Activity [6] was “Active”. For the same compound, the Activity [7] was “inactive”, the Activity [8] was “Active” and the Activity [9] was 41.3%. For the same compound, the inhibition [10] was “Active”, the DC50 [11] was 13.7 nM and the inhibition [12] was “inactive”. The Activity [13] was “inactive”, the Activity [14] was “inactive” and the Activity [15] was “inactive”. The Activity [16] was “inactive”, the DC50 [17] was 41.4 nM and the Activity [18] was “inactive”. For the same compound, the inhibition [19] was “Active”, the DC50 [20] was 23.5 nM and the Activity [21] was “inactive”. For the same compound, the DC50 [22] was about 17 nM, the Activity [23] was “inactive” and the Activity [24] was “inactive”. For the same compound, the Activity [25] was “inactive”, the Activity [26] was “inactive” and the Activity [27] was “inactive”. The Activity [28] was 86.7%, the Activity [29] was “inactive” and the Activity [30] was “Active”. For the same compound, the inhibition [31] was “Active”, the Activity [32] was “inactive” and the Activity [33] was “inactive”.
